Results: ChEMBL document CHEMBL1201862, “PubChem BioAssay data set” (2004)
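Growth conditions: 96-well plates. Treatment: test compound, 48 hours, 5 concentrations. Analysis: linear interpolation between bracketing concentrations; unreached endpoints set to highest concentration. Here, GI50 denotes the concentration required for 50% inhibition of growth.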 Active and inactive are the calls of the source. No stated cut-off is given here; in the data, active = GI50 up to about 1.1 µM and inactive = higher.

How the values were obtained:
Assay in all cases: DTP human tumour cell line panel, 48 h
ACHN = test system: ACHN
HCC 2998 = test system: HCC 2998
HOP-62 = test system: HOP-62
HOP-92 = test system: HOP-92
MDA-MB-231 = test system: MDA-MB-231
MDA-N = test system: MDA-N
NCI-H226 = test system: NCI-H226
NCI-H23 = test system: NCI-H23
NCI/ADR-RES = test system: NCI/ADR-RES
OVCAR-4 = test system: OVCAR-4
OVCAR-5 = test system: OVCAR-5
SF-268 = test system: SF-268
SF-539 = test system: SF-539
SK-MEL-28 = test system: SK-MEL-28
SK-MEL-2 = test system: SK-MEL-2
SK-MEL-5 = test system: SK-MEL-5
SW-620 = test system: SW-620
TK-10 = test system: TK-10
UACC-257 = test system: UACC-257
UO-31 = test system: UO-31

SMILES	GI50 (ACHN)	GI50 (HCC 2998)	GI50 (HOP-62)	GI50 (HOP-92)	GI50 (MDA-MB-231)	GI50 (MDA-N)	GI50 (NCI-H226)	GI50 (NCI-H23)	GI50 (NCI/ADR-RES)	GI50 (OVCAR-4)	GI50 (OVCAR-5)	GI50 (SF-268)	GI50 (SF-539)	GI50 (SK-MEL-28)	GI50 (SK-MEL-2)	GI50 (SK-MEL-5)	GI50 (SW-620)	GI50 (TK-10)	GI50 (UACC-257)	GI50 (UO-31)
CCc1nc(N)nc(N)c1-c1ccc(N2CCNCC2)c([N+](=O)[O-])c1	17.9 µM (inactive)	11.5 µM (inactive)	19.4 µM (inactive)	27.4 µM (inactive)	26.5 µM (inactive)	4.85 µM (inactive)	65.9 µM (inactive)	7.85 µM (inactive)	> 100 µM (inactive)	32.7 µM (inactive)	30.3 µM (inactive)	9.29 µM (inactive)	10.6 µM (inactive)	40.5 µM (inactive)	36.9 µM (inactive)	8.59 µM (inactive)	5.4 µM (inactive)	> 100 µM (inactive)	13.9 µM (inactive)	78.7 µM (inactive)
Cc1cn([C@H]2C[C@@H](N3C(=O)c4ccccc4C3=O)[C@@H](CO[Si](C)(C)C(C)(C)C)O2)c(=O)[nH]c1=O	62.7 µM (inactive)	> 100 µM (inactive)	20.7 µM (inactive)	48.6 µM (inactive)	70.3 µM (inactive)	> 100 µM (inactive)	57.1 µM (inactive)	31.6 µM (inactive)	43.3 µM (inactive)	> 100 µM (inactive)	> 100 µM (inactive)	30.6 µM (inactive)	27.5 µM (inactive)	> 100 µM (inactive)	46.8 µM (inactive)	> 100 µM (inactive)	> 100 µM (inactive)	> 100 µM (inactive)	> 100 µM (inactive)	52.5 µM (inactive)
COc1cc(/C=C/C(=N\NC(=S)NN)c2sc(NNC(C)=O)nc2C)ccc1O	> 100 µM (inactive)	> 100 µM (inactive)	> 100 µM (inactive)	> 100 µM (inactive)	> 100 µM (inactive)	> 100 µM (inactive)	> 100 µM (inactive)	> 100 µM (inactive)	> 100 µM (inactive)	> 100 µM (inactive)	> 100 µM (inactive)	> 100 µM (inactive)	> 100 µM (inactive)	> 100 µM (inactive)	> 100 µM (inactive)	> 100 µM (inactive)	> 100 µM (inactive)	> 100 µM (inactive)	> 100 µM (inactive)	> 100 µM (inactive)
COC(=O)c1sc2c(c1C(=O)OC)/C(=N/C(C)(C)C)S/C2=N\C(C)(C)C	18.7 µM (inactive)	14.8 µM (inactive)	19.6 µM (inactive)	18.7 µM (inactive)	19.9 µM (inactive)	17.9 µM (inactive)	16.3 µM (inactive)	18.8 µM (inactive)	19.8 µM (inactive)	17.7 µM (inactive)	20.6 µM (inactive)	19.1 µM (inactive)	16.6 µM (inactive)	17.3 µM (inactive)	17.1 µM (inactive)	14.8 µM (inactive)	17.9 µM (inactive)	17.2 µM (inactive)	17.9 µM (inactive)	0.14 µM (active)
Cc1c2c(C(N)=O)nccc2c(C)c2c1c1ccccc1n2Cc1ccccc1	16.3 µM (inactive)	26.4 µM (inactive)	6.38 µM (inactive)	4.93 µM (inactive)	9.75 µM (inactive)	29 µM (inactive)	23.7 µM (inactive)	23.1 µM (inactive)	9.75 µM (inactive)	2.61 µM (inactive)	28.6 µM (inactive)	28.4 µM (inactive)	19.1 µM (inactive)	54.5 µM (inactive)	18.8 µM (inactive)	34.8 µM (inactive)	17.2 µM (inactive)	15.9 µM (inactive)	43.3 µM (inactive)	16.4 µM (inactive)
Cc1c(Cl)ccc2c1NC(=O)C2(O)CC(=O)c1ccc(Cl)cc1Cl (stereo not given)	36.7 µM (inactive)	> 50 µM (inactive)	19.2 µM (inactive)	23.6 µM (inactive)	30.5 µM (inactive)	> 50 µM (inactive)	> 29.4 µM (inactive)	> 47.1 µM (inactive)	> 50 µM (inactive)	> 50 µM (inactive)	> 50 µM (inactive)	> 50 µM (inactive)	17.7 µM (inactive)	> 50 µM (inactive)	> 50 µM (inactive)	> 50 µM (inactive)	> 50 µM (inactive)	30.5 µM (inactive)	> 50 µM (inactive)	> 50 µM (inactive)
CC(=O)N1c2ccccc2C(C)(C)OC1C(Cl)(Cl)Cl (stereo not given)	41.1 µM (inactive)	23.2 µM (inactive)	55.8 µM (inactive)	21 µM (inactive)	39.6 µM (inactive)	26.1 µM (inactive)	87.7 µM (inactive)	34.1 µM (inactive)	31.7 µM (inactive)	42.5 µM (inactive)	44.8 µM (inactive)	37.3 µM (inactive)	44.5 µM (inactive)	47.6 µM (inactive)	45.1 µM (inactive)	23.8 µM (inactive)	34 µM (inactive)	35.9 µM (inactive)	26.5 µM (inactive)	58.2 µM (inactive)
CC(=O)OCC1OC(n2c(N)c(C#N)c(-c3ccc(C)cc3)c(C#N)c2=S)C(OC(C)=O)C(OC(C)=O)C1OC(C)=O (stereo not given)	29.1 µM (inactive)	16.9 µM (inactive)	20 µM (inactive)	15.2 µM (inactive)	44.9 µM (inactive)	17.1 µM (inactive)	3.53 µM (inactive)	21.1 µM (inactive)	30 µM (inactive)	41.9 µM (inactive)	53.5 µM (inactive)	15.2 µM (inactive)	4.91 µM (inactive)	38.7 µM (inactive)	15.2 µM (inactive)	11.1 µM (inactive)	36 µM (inactive)	18.5 µM (inactive)	19.2 µM (inactive)	17.9 µM (inactive)
